# pIC50: −log10 of the molar value.
# Columns and labels:
# [1] = Drug metabolism in human in presence of ketoconazole; format: ADME, organism-based; conditions: in vivo, with ketoconazole, read-out: Drug metabolism
# Acyl-CoA desaturase 1 [2] = target: T1, Acyl-CoA desaturase 1 (Rattus norvegicus, UniProt P07308); assay: Inhibition of SCD1 in Wistar rat liver microsomes using [14C] stearic acid as substrate incubated for 10 mins prior to substrate addition measured after 1 hr by chromatographic analysis; design: species or system Microsome
# T1 sequence (P07308 whole entry): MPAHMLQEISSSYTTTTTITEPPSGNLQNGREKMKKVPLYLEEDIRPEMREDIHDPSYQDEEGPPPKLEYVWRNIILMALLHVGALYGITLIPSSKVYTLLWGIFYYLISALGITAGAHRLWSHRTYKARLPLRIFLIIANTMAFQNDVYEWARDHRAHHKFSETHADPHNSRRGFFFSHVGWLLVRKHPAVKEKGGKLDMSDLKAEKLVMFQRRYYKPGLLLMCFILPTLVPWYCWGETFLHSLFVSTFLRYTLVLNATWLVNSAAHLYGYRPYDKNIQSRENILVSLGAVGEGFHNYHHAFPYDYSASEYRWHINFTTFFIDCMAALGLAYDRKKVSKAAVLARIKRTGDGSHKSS
# [3] = Drug metabolism in human; format: ADME, organism-based; conditions: in vivo, read-out: Drug metabolism
# Stearoyl-CoA desaturase = target: T2, Stearoyl-CoA desaturase (Homo sapiens, UniProt O00767); assay: Inhibition of SCD1 in human HepG2 cells; format: cell-based
# T2 sequence (O00767 whole entry): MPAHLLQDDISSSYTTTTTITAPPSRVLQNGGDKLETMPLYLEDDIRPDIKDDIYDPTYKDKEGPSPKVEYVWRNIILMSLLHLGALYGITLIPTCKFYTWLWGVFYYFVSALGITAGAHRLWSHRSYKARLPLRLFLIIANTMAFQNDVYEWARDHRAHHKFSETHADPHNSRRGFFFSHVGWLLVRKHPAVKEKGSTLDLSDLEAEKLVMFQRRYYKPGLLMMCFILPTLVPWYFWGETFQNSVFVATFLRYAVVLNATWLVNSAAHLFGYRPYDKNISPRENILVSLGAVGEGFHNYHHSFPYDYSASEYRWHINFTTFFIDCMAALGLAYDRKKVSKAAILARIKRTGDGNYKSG
# [4] = Drug metabolism in rat; format: ADME, organism-based; conditions: in vivo, read-out: Drug metabolism
# Acyl-CoA desaturase 1 [5] = target: T1, Acyl-CoA desaturase 1; assay: Inhibition of SCD1 in rat H42E cells; format: cell-based
# [6] = Permeability across human Caco2 cells; format: ADME, cell-based; conditions: Caco-2, read-out: permeability
# [7] = Drug metabolism in human in presence of quinidine; format: ADME, organism-based; conditions: in vivo, with quinidine, read-out: Drug metabolism
# [8] = Lipophilicity, log D of the compound at pH 7.4; format: physicochemical; conditions: buffer
# Rattus norvegicus [9] = assay: Volume of distribution at steady state in Zucker diabetic fatty rat at 5 mg/kg, iv; format: ADME, organism-based; design: dose 5 mg/kg, route intravenous; conditions: in vivo
# [10] = Cmax in Zucker diabetic fatty rat at 30 mg/kg, po after 4 hrs; format: ADME, organism-based; design: dose 30 mg/kg, route oral; conditions: in vivo
# [11] = Plasma clearance in Zucker diabetic fatty rat at 5 mg/kg, iv; format: ADME, organism-based; design: dose 5 mg/kg, route intravenous
# [12] = Apparent half life in Zucker diabetic fatty rat at 30 mg/kg, po; format: ADME, organism-based; design: dose 30 mg/kg, route oral; conditions: in vivo, read-out: t1/2(app) (converted)
# [13] = Half life in Zucker diabetic fatty rat at 5 mg/kg, iv; format: ADME, organism-based; design: dose 5 mg/kg, route intravenous; conditions: in vivo
# Rattus norvegicus [14] = assay: In vivo inhibition of SCD1 in Zucker diabetic fatty rat assessed as decrease in serum fatty acid desaturation index at 30 mg/kg, po after 6 hrs relative to vehicle-treated control; format: functional
# [15] = Oral bioavailability in Zucker diabetic fatty rat at 30 mg/kg; format: ADME, organism-based; conditions: in vivo
# HepG2 = assay: Inhibition of ACC phosphorylation in human HepG2 cells at 10 uM by Western blotting analysis relative to control; format: cell-based
# [16] = Drug metabolism in mouse; format: ADME, organism-based; conditions: in vivo, read-out: Drug metabolism
structure (smiles),measurement,setting,value
OC(c1ccc2[nH]c(-c3ccc(OCc4ccccc4)cc3)nc2c1)c1ccccc1C(F)(F)F (racemic),metabolised,[1],46%
same,pIC50,Acyl-CoA desaturase 1 [2],7.09
same,metabolised,[3],71%
same,pIC50,Stearoyl-CoA desaturase,6.53
same,metabolised,[4],20%
same,pIC50,Acyl-CoA desaturase 1 [5],7.85
same,Papp,[6],18.2 ×10⁻⁶ cm/s
same,metabolised,[7],60%
O=C(Nc1nccs1)c1ccc2nc(-c3ccc(C(=O)c4ccccc4C(F)(F)F)cc3)[nH]c2c1,pIC50,Acyl-CoA desaturase 1 [2],5.34
O=C(c1ccccc1)c1ccc2nc(-c3ccc(Oc4ccccc4)cc3)[nH]c2c1,pIC50,Acyl-CoA desaturase 1 [2],4.80
O=C(NCc1ccc(Cl)s1)c1ccc2nc(-c3ccc(Oc4ccccc4C(F)(F)F)cc3)[nH]c2c1,pIC50,Acyl-CoA desaturase 1 [2],6.85
same,pIC50,Stearoyl-CoA desaturase,6.36
O=C(NCCC1CC1)c1ccc2nc(-c3ccc(Oc4ccccc4)cc3)[nH]c2c1,pIC50,Acyl-CoA desaturase 1 [2],4.60
O=C(NCc1ccc(Cl)s1)c1ccc2[nH]c(-c3ccc(C(=O)c4ccccc4C(F)(F)F)cc3)nc2c1,metabolised,[1],10%
same,logD,[8],3.94
same,pIC50,Acyl-CoA desaturase 1 [2],6.87
same,metabolised,[3],45%
same,pIC50,Stearoyl-CoA desaturase,6.80
same,metabolised,[4],40%
same,pIC50,Acyl-CoA desaturase 1 [5],6.74
same,Papp,[6],5.26 ×10⁻⁶ cm/s
same,Vdss,Rattus norvegicus [9],1.7 L/kg
same,Cmax,[10],1950 ng/mL
same,clearance,[11],4.17 mL/min/kg
same,half-life,[12],8.4 h
same,half-life,[13],6.5 h
same,inhibition in vivo at 30 mg/kg,Rattus norvegicus [14],84.4%
same,bioavailability,[15],25%
same,metabolised,[7],40%
O=C(NCc1cccs1)c1ccc2nc(-c3ccc(Oc4ccccc4)cc3)[nH]c2c1,logD,[8],3.68
same,pIC50,Acyl-CoA desaturase 1 [2],5.42
CNC(=O)c1ccc2nc(-c3ccc(Oc4ccccc4C(F)(F)F)cc3)[nH]c2c1,pIC50,Acyl-CoA desaturase 1 [2],4.57
O=C(NCc1cccc(C(F)(F)F)c1)c1ccc2[nH]c(-c3ccc(Oc4ccccc4)cc3)nc2c1,pIC50,Acyl-CoA desaturase 1 [2],4.93
O=C(NCc1nccs1)c1ccc2nc(-c3ccc(Oc4ccccc4)cc3)[nH]c2c1,pIC50,Acyl-CoA desaturase 1 [2],5.19
O=C(NCc1nccs1)c1ccc2[nH]c(-c3ccc(C(=O)c4ccccc4C(F)(F)F)cc3)nc2c1,pIC50,Acyl-CoA desaturase 1 [2],7.11
same,pIC50,Stearoyl-CoA desaturase,6.75
same,pIC50,Acyl-CoA desaturase 1 [5],6.98
O=C(c1ccccc1)c1ccc2nc(-c3ccc(C(=O)c4ccccc4C(F)(F)F)cc3)[nH]c2c1,pIC50,Acyl-CoA desaturase 1 [2],< 4.00
O=C(NCCC1CC1)c1ccc2[nH]c(-c3ccc(Oc4ccccc4Cl)cc3)nc2c1,inhibition,HepG2,140%
O=C(NCc1nccs1)c1ccc2nc(-c3ccc(Oc4ccccc4Cl)cc3)[nH]c2c1,metabolised,[1],16%
same,logD,[8],2.24
same,metabolised,[16],23%
same,pIC50,Acyl-CoA desaturase 1 [2],6.94
same,metabolised,[3],45%
same,pIC50,Stearoyl-CoA desaturase,5.94
same,metabolised,[4],38%
same,pIC50,Acyl-CoA desaturase 1 [5],6.52
same,Papp,[6],6.36 ×10⁻⁶ cm/s
same,metabolised,[7],40%
CC(C)CCNC(=O)c1ccc2nc(-c3ccc(C(=O)c4ccccc4C(F)(F)F)cc3)[nH]c2c1,pIC50,Acyl-CoA desaturase 1 [2],5.41
O=C(NCc1ccccc1)c1ccc2nc(-c3ccc(Oc4ccccc4)cc3)[nH]c2c1,pIC50,Acyl-CoA desaturase 1 [2],5.11
O=C(NCCCc1ccccc1)c1ccc2nc(-c3ccc(Oc4ccccc4)cc3)[nH]c2c1,pIC50,Acyl-CoA desaturase 1 [2],4.55
CCOC(=O)c1ccc2[nH]c(-c3ccc(Oc4ccccc4C(F)(F)F)cc3)nc2c1,pIC50,Acyl-CoA desaturase 1 [2],4.42
O=C(NCc1nccs1)c1ccc2[nH]c(-c3ccc(Oc4ccccc4C(F)(F)F)cc3)nc2c1,pIC50,Acyl-CoA desaturase 1 [2],6.67
same,pIC50,Stearoyl-CoA desaturase,6.50
CCn1c(COCc2ccccc2)nc2cc(C(=O)NCCc3ccc(O)cc3)ccc21,pIC50,Acyl-CoA desaturase 1 [2],5.30
O=C(NCCCc1ccccc1)c1ccc2nc(-c3ccc(Oc4ccccc4C(F)(F)F)cc3)[nH]c2c1,pIC50,Acyl-CoA desaturase 1 [2],< 4.00
O=C(CCc1ccccc1)Nc1ccc(N2CCN(C(=O)c3ccccc3C(F)(F)F)CC2)nc1,pIC50,Acyl-CoA desaturase 1 [2],5.65
CC(C)CCNC(=O)c1ccc2nc(-c3ccc(Oc4ccccc4)cc3)[nH]c2c1,pIC50,Acyl-CoA desaturase 1 [2],4.67
O=C(NCc1ccc(Cl)s1)c1ccc2[nH]c(-c3ccc(Oc4ccccc4)cc3)nc2c1,pIC50,Acyl-CoA desaturase 1 [2],5.43
O=C(c1ccccc1)c1ccc2nc(-c3ccc(-c4ccccc4)cc3)[nH]c2c1,pIC50,Acyl-CoA desaturase 1 [2],< 4.00
CC(C)CCNC(=O)c1ccc2[nH]c(-c3ccc(Oc4ccccc4Cl)cc3)nc2c1,pIC50,Acyl-CoA desaturase 1 [2],5.57
O=C(NCc1ccc(Cl)s1)c1cccc(-c2nc3cc(Oc4ccccc4C(F)(F)F)ccc3[nH]2)c1,pIC50,Acyl-CoA desaturase 1 [2],5.66
O=C(NCc1nccs1)c1cccc(-c2nc3cc(Oc4ccccc4C(F)(F)F)ccc3[nH]2)c1,pIC50,Acyl-CoA desaturase 1 [2],5.89
O=C(NCc1ccc(Cl)s1)c1ccc2nc(-c3ccc(Oc4ccccc4Cl)cc3)[nH]c2c1,metabolised,[1],41%
same,metabolised,[16],36%
same,pIC50,Acyl-CoA desaturase 1 [2],6.08
same,metabolised,[3],64%
same,pIC50,Stearoyl-CoA desaturase,5.87
same,metabolised,[4],31%
same,Papp,[6],11.4 ×10⁻⁶ cm/s
same,metabolised,[7],62%
O=C(NCc1cccs1)c1ccc2nc(-c3ccc(C(=O)c4ccccc4C(F)(F)F)cc3)[nH]c2c1,pIC50,Acyl-CoA desaturase 1 [2],7.00
O=C(c1ccc2nc(-c3ccc(OCc4ccccc4)cc3)[nH]c2c1)c1ccccc1C(F)(F)F,pIC50,Acyl-CoA desaturase 1 [2],4.88
O=C(NCCC1CC1)c1ccc2nc(-c3ccc(Oc4ccccc4C(F)(F)F)cc3)[nH]c2c1,pIC50,Acyl-CoA desaturase 1 [2],6.27
O=C(Cc1cccs1)Nc1ccc2nc(N3CCN(C(=O)c4ccccc4C(F)(F)F)CC3)[nH]c2c1,pIC50,Acyl-CoA desaturase 1 [2],5.49
CC(C)CCNC(=O)c1ccc2nc(-c3ccc(Oc4ccccc4C(F)(F)F)cc3)[nH]c2c1,pIC50,Acyl-CoA desaturase 1 [2],6.36
O=C(NCC1CC1)c1ccc2[nH]c(-c3ccc(Oc4ccccc4)cc3)nc2c1,pIC50,Acyl-CoA desaturase 1 [2],4.78
O=C(NCCC1CC1)c1ccc2nc(-c3ccc(Oc4ccccc4Cl)cc3)[nH]c2c1,metabolised,[1],45%
same,metabolised,[16],49%
same,pIC50,Acyl-CoA desaturase 1 [2],6.02
same,metabolised,[3],62%
same,pIC50,Stearoyl-CoA desaturase,5.63
same,metabolised,[4],38%
same,Papp,[6],16.7 ×10⁻⁶ cm/s
same,metabolised,[7],58%

# From ChEMBL document CHEMBL2331419, “Benzimidazole-carboxamides as potent and bioavailable stearoyl-CoA desaturase (SCD1) inhibitors from ligand-based virtual screening and chemical optimization” (Bioorg Med Chem Lett, 2013)
